Measured values from ChEMBL document CHEMBL1255197, “Surface plasmon resonance biosensor based fragment screening using acetylcholine binding protein identifies ligand efficiency hot spots (LE hot spots) by deconstruction of nicotinic acetylcholine receptor α7 ligands” (J Med Chem, 2010).

Tests used:
[1] = biological target: T1, Acetylcholine-binding protein (Lymnaea stagnalis, UniProt P58154)
Description: Binding affinity to Lymnaea stagnalis His6-AChBP expressed in Bac-to-Bac baculovirus expression system by surface plasmon resonance biosensor assay

[2] = biological target: Neuronal acetylcholine receptor subunit alpha-7 (Homo sapiens, UniProt P36544); experiment: biochemical
Description: Displacement of [3H]-MLA from human alpha7 nAChR expressed in human SH-SY5Y cells

[3] = biological target: T1, Acetylcholine-binding protein; remark: listed apart in the source
Description: Displacement of [3H]epibatidine from Lymnaea stagnalis His6-AChBP expressed in Bac-to-Bac baculovirus expression system

Neuronal acetylcholine receptor subunit alpha-7, sequence (P36544 whole entry): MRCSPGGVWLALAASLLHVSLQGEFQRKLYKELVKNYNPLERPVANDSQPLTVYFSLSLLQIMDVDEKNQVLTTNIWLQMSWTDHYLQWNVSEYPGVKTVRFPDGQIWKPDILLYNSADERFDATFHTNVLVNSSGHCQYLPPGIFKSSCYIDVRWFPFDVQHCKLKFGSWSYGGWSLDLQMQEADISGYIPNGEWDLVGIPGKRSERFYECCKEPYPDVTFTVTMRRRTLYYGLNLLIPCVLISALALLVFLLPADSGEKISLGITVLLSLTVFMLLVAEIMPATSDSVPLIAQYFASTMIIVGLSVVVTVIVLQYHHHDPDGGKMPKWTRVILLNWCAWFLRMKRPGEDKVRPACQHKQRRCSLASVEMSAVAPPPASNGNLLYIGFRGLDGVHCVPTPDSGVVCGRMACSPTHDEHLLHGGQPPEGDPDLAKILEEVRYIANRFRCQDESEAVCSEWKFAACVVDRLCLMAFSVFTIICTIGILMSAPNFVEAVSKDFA
T1 sequence (P58154 whole entry): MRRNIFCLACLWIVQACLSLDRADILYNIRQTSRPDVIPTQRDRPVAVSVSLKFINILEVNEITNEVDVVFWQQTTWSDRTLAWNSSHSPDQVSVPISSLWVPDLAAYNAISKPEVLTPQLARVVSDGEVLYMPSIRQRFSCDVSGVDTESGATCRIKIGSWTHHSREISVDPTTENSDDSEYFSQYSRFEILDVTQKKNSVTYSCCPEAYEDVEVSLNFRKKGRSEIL

SMILES | Kd [1] | Ki [2] | Ki [3]
O=C(Nc1ccccc1)OCCCc1cccnc1 | 741 µM | 14.5 µM | 282 µM
O=C(Nc1ccc(Br)cc1)OCCCc1cccnc1 | 50.1 µM | 6.92 µM | > 10 µM
O=C(Nc1ccccc1)O[C@H]1CN2CCC1CC2 | 29.5 µM | – | 7.94 µM
O=C(Nc1ccc(Br)cc1)O[C@H]1CN2CCC1CC2 | 4.47 µM | 0.0389 µM | 3.02 µM
O=C(Nc1ccccc1)N[C@H]1CN2CCC1CC2 | 18.6 µM | 0.11 µM | 5.5 µM
O=C(Nc1ccc(Br)cc1)N[C@H]1CN2CCC1CC2 | 4.9 µM | 0.0437 µM | 5.13 µM
O[C@@H]1C2CCN(CC2)[C@H]1Cc1cccnc1 | 0.316 µM | 3.31 µM | 0.251 µM
N[C@@H]1C2CCN(CC2)[C@H]1Cc1cccnc1 | 0.55 µM | 2.29 µM | 0.468 µM
N[C@H]1CN2CCC1CC2 | 74.1 µM | 6.31 µM | 110 µM
NCCc1cccnc1 | 148 µM | 8.51 µM | 93.3 µM
O=C(N[C@@H]1C2CCN(CC2)[C@H]1Cc1cccnc1)c1ccccc1 | 0.219 µM | – | 0.24 µM
O=C(N[C@@H]1C2CCN(CC2)[C@H]1Cc1cccnc1)c1cccs1 | 0.24 µM | 0.0437 µM | 0.148 µM
O=C(Nc1ccccc1)O[C@@H]1C2CCN(CC2)[C@H]1Cc1cccnc1 | 0.1 µM | 0.0186 µM | 0.0617 µM
O=C(Nc1ccccc1)N[C@@H]1C2CCN(CC2)[C@H]1Cc1cccnc1 | 0.871 µM | 0.0288 µM | 0.562 µM
O=C(Nc1ccc(Br)cc1)N[C@@H]1C2CCN(CC2)[C@H]1Cc1cccnc1 | 0.437 µM | 0.0257 µM | 0.708 µM
O=C(N[C@@H]1C2CCN(CC2)[C@H]1Cc1cccnc1)Oc1ccccc1 | 0.347 µM | 0.0372 µM | 0.501 µM
CN(C)CCc1cccnc1 | 6.03 µM | 3.16 µM | 3.16 µM
O=C(N[C@@H]1C2CCN(CC2)[C@H]1Cc1cccnc1)c1cc2ccccc2o1 [BRADANICLINE] | 0.02 µM | – | 0.0145 µM
O=C(N[C@H]1CN2CCC1CC2)c1ccc(Cl)cc1 [PNU-282987] | 3.63 µM | 0.0245 µM | 2.09 µM
